Experimental data: patent US20220144809A1, “COMPOUNDS AND METHODS FOR THE TARGETED DEGRADATION OF ANDROGEN RECEPTOR AND ASSOCIATED METHODS OF USE” (Arvinas Operations, Inc., priority 2020, published 2022)

Tested on: Androgen Receptor (AR)
Test: Androgen Receptor ELISA assay (AR degradation in LNCaP and/or VCaP cells)
Type: cell-based
Settings: degradation of AR, 5 hours incubation, R1881 in media
Method: Assay for Testing AR Degradation Driven by Compounds of the Present Disclosure.
Androgen Receptor ELISA Assay. Compounds were evaluated in the following assay in LNCaP and/or VCaP cells utilizing similar protocols. The protocols used with VCaP cells are described below. The androgen receptor ELISA assay was performed using PathScan AR Sandwich ELISA (Cell Signaling Catalog#12850) according to the following assay steps.
VCaP cells were seeded at 40,000 cells/well at a volume of 100 μL/well in VCaP assay medium [Phenol red free RPMI (Gibco Cat#11835-030); 5% Charcoal Stripped (Dextran treated) FBS (Omega Scientific, Cat#FB-04); 1% penstrep (Life Technologies, Gibco Cat#: 10378-016)] in Corning 3904 plates. The cells were grown for a minimum of 3 days.
First, cells were dosed with compounds diluted in […]—in a polypropylene plate avoiding the use of outer columns according to the following protocol: (1)(i) 1000× stock plate in DMSO was made; (ii) 20 mM stock diluted 1/6.7 with DMSO (5 μL+28.3 μL DMSO)=3 mM into row H; (iii) serial dilutions in ½ log doses (10 μL of bifunctional compound+20 μL DMSO) was performed from row H towards row B with row A being reserved for DMSO; (iv) 7 doses total (final concentration in this 1000× plate will be 3 mM, 1 mM, 333 μM, 111 μM, etc). (2)(i) A 10× stock plate in media was made; (ii) 2.5 μL of the 1000× stock was trasnferred to a new 10× stock plate (use 12 channel pipet, start at A (DMSO control) work thru H. When 247.5 μL of media was added to this plate, it served as a 10× stock; (iii) made media+1 nM R1881 for making 10× stock plate; (iv) added 247.5 μL of media with 1 nM R1881 to each well of the 10× stock plate, mix.
Then 22 μL of 10× stock was added to cells and incubated for 5 hours. 1× Cell Signaling Cell lysis buffer was made (Catalogue #9803; comes with the kit) to have […], and was kept on ice. Media was aspirated, and 100 μL 1× cell lysis buffer/well was added. The cells were placed on a shaker located in a cold room for 10 minutes and shaken at speed 7. The lysate mixture was mix and 20 μL transferred to 100 μl of Diluent in ELISA plate (0.15 μg/ml-0.075 μg/ml). The lysate-diluent mixture was store at 4° C. overnight on a shaker located in a cold room at speed 5 (gentle swirl).
The lysate-diluent mixture was shaken for 30 minutes at 37° C. The mouse AR antibody, anti-mouse antibody, TMB, and STOP solution were allowed to come to room temperature. The 1×ELISA buffer included in kit was made and loaded in reservoir. Media from the plate was discarded, the ELISA plate was tapped hard on paper towel, and washed 4×200 μl ELISA wash buffer using a plate washer for the first three washes and an eight channel aspirator for the fourth wash to more thoroughly aspirate the solution.
Next, 100 μL/well of mouse AR detection Ab was added; the plate was covered and shaken at 37° C. for 1 hour; media was discarded from the plates, the plates tapped on a paper towel and washed four times with 200 μL ELISA wash buffer with a plate washer for the first three washes and an eight channel aspirator for the fourth wash; 100 μL/well of anti-mouse—HRP conjugated Ab (comes with the kit) was added; the plates wascover and shaken at 37° C. for 30 minutes; the TMB reagent was allowed to come to room temperature; the media from the plate was discarded, the plates tapped on paper towel, and washed four times with 200 μL ELISA wash buffer with a plate washer for the first three washes and an eight channel aspirator for the fourth wash; plates were tapped on paper towl; 100 μL TMB was added to each well and the plate shaken for 2 minutes—while watching color. STOP solution (100 μL) was added when light blue color developed. The plates were shake and read at 450 nm.
Data was analyzed and plotted using GraphPad Prism software. Exemplary compounds of Table 1 were assayed and the data shown below in Table 2. […]

Row | DC50 [nM] | SMILES | Dmax Code
1 | ≥ 100 | CC(C)N(CC1CCN(c2ccc(Cn3c(=O)n(-c4ccc(C#N)c(C(F)(F)F)c4)c4ccccc43)cc2)CC1)[C@H]1C[C@H](Oc2ccc3c(c2)C(=O)N(C2CCC(=O)NC2=O)C3=O)C1 (stereo partly shown) [Compound 25, 4-(3-(4-(4-((((1r,3r)-3-((2-(2,6-dioxopiperidin-3-yl)-1,3-dioxoisoindolin-5-yl)oxy)cyclobutyl)(isopropyl)amino)methyl)piperidin-1-yl)benzyl)-2-oxo-2,3-dihydro-1H-benzo[d]imidazol-1-yl)-2-(trifluoromethyl)benzonitrile] | C (C<50)
2 | < 1 | N#Cc1ncc(N2C(=O)C3(CCC3)N(c3ccc(N4CCC(CN5CCN(c6ccc7c(c6)C(=O)N(C6CCC(=O)NC6=O)C7)CC5)CC4)cc3)C2=S)cc1Cl (stereo not shown) [Compound 2, 3-chloro-5-(5-(4-(4-((4-(2-(2,6-dioxopiperidin-3-yl)-3-oxoisoindolin-5-yl)piperazin-1-yl)methyl)piperidin-1-yl)phenyl)-8-oxo-6-thioxo-5,7-diazaspiro[3.4]octan-7-yl)picolinonitrile] | A (A≥70)
3 | < 1 | N#Cc1ncc(N2C(=O)C3(CCC3)N(c3ccc(CCCCCN4CCN(c5ccc6c(c5)C(=O)N(C5CCC(=O)NC5=O)C6=O)CC4)cc3)C2=S)cc1Cl (stereo not shown) [Compound 1, 3-chloro-5-(5-(4-(5-(4-(2-(2,6-dioxopiperidin-3-yl)-1,3-dioxoisoindolin-5-yl)piperazin-1-yl)pentyl)phenyl)-8-oxo-6-thioxo-5,7-diazaspiro[3.4]octan-7-yl)picolinonitrile] | A (A≥70)
4 | ≥ 100 | Cc1c(C#N)c(-c2ccc(C#N)cc2)c(C)n1Cc1ccc(OCCN2CCC(CN3CCN(c4ccc5c(c4)C(=O)N(C4CCC(=O)NC4=O)C5=O)CC3)CC2)cc1 (stereo not shown) [Compound 20, 4-(4-cyanophenyl)-1-(4-(2-(4-((4-(2-(2,6-dioxopiperidin-3-yl)-1,3-dioxoisoindolin-5-yl)piperazin-1-yl)methyl)piperidin-1-yl)ethoxy)benzyl)-2,5-dimethyl-1H-pyrrole-3-carbonitrile] | C (C<50)
5 | 1 to 10 | N#Cc1ncc(N2C(=O)C3(CCC3)N(c3ccc(C4CCN(CC5CCN(c6ccc7c(c6)C(=O)N(C6CCC(=O)NC6=O)C7)CC5)CC4)cc3)C2=S)cc1Cl (stereo not shown) [Compound 11] | C (C<50)
6 | 1 to 10 | COc1cc(N2C(=O)C3(CCC3)N(c3ccc(N4CCC(CN5CCN(c6ccc7c(c6)C(=O)N(C6CCC(=O)NC6=O)C7=O)CC5)CC4)c(F)c3)C2=S)ccc1C#N (stereo not shown) [Compound 6, 4-(5-(4-(4-((4-(2-(2,6-dioxopiperidin-3-yl)-1,3-dioxoisoindolin-5-yl)piperazin-1-yl)methyl)piperidin-1-yl)-3-fluorophenyl)-8-oxo-6-thioxo-5,7-diazaspiro[3.4]octan-7-yl)-2-methoxybenzonitrile] | A (A≥70)
7 | ≥ 100 | Cc1c(C#N)c(-c2ccc(C#N)cc2)c(C)n1Cc1ccc(OCCCN2CCC(CN3CCN(c4ccc5c(c4)C(=O)N(C4CCC(=O)NC4=O)C5=O)CC3)CC2)cc1 (stereo not shown) [Compound 19, 4-(4-cyanophenyl)-1-(4-(3-(4-((4-(2-(2,6-dioxopiperidin-3-yl)-1,3-dioxoisoindolin-5-yl)piperazin-1-yl)methyl)piperidin-1-yl)propoxy)benzyl)-2,5-dimethyl-1H-pyrrole-3-carbonitrile] | C (C<50)
8 | 1 to 10 | N#Cc1ncc(N2C(=O)C3(CCC3)N(c3ccc(OC4CCN(CC5CCN(c6ccc7c(c6)C(=O)N(C6CCC(=O)NC6=O)C7=O)CC5)CC4)nc3)C2=S)cc1C(F)(F)F (stereo not shown) [Compound 12, 5-(5-(6-((1-((1-(2-(2,6-dioxopiperidin-3-yl)-1,3-dioxoisoindolin-5-yl)piperidin-4-yl)methyl)piperidin-4-yl)oxy)pyridin-3-yl)-8-oxo-6-thioxo-5,7-diazaspiro[3.4]octan-7-yl)-3-(trifluoromethyl)picolinonitrile] | B (50≤B<70)
9 | ≥ 100 | CC(C)N(CC1CCN(CCCn2c(=O)n(-c3ccc(C#N)c(C(F)(F)F)c3)c3ccccc32)CC1)[C@H]1C[C@H](Oc2ccc3c(c2)C(=O)N(C2CCC(=O)NC2=O)C3=O)C1 (stereo partly shown) [Compound 23, 4-(3-(3-(4-((((1r,3r)-3-((2-(2,6-dioxopiperidin-3-yl)-1,3-dioxoisoindolin-5-yl)oxy)cyclobutyl)(isopropyl)amino)methyl)piperidin-1-yl)propyl)-2-oxo-2,3-dihydro-1H-benzo[d]imidazol-1-yl)-2-(trifluoromethyl)benzonitrile] | C (C<50)
10 | 1 to 10 | CC(C)N(CC1CCN(Cc2ccc(-n3c(=O)n(-c4ccc(C#N)c(C(F)(F)F)c4)c4ccccc43)cc2)CC1)[C@H]1C[C@H](Oc2ccc3c(c2)C(=O)N(C2CCC(=O)NC2=O)C3=O)C1 (stereo partly shown) [Compound 15, 4-(3-(4-((4-((((1r,3r)-3-((2-(2,6-dioxopiperidin-3-yl)-1,3-dioxoisoindolin-5-yl)oxy)cyclobutyl)(isopropyl)amino)methyl)piperidin-1-yl)methyl)phenyl)-2-oxo-2,3-dihydro-1H-benzo[d]imidazol-1-yl)-2-(trifluoromethyl)benzonitrile] | C (C<50)
11 | ≥ 100 | CC(C)N(CC1CCN(CCCCn2c(=O)n(-c3ccc(C#N)c(C(F)(F)F)c3)c3ccccc32)CC1)[C@H]1C[C@H](Oc2ccc3c(c2)C(=O)N(C2CCC(=O)NC2=O)C3=O)C1 (stereo partly shown) [Compound 24, 4-(3-(4-(4-((((1r,3r)-3-((2-(2,6-dioxopiperidin-3-yl)-1,3-dioxoisoindolin-5-yl)oxy)cyclobutyl)(isopropyl)amino)methyl)piperidin-1-yl)butyl)-2-oxo-2,3-dihydro-1H-benzo[d]imidazol-1-yl)-2-(trifluoromethyl)benzonitrile] | C (C<50)

Row | SMILES | DC50 [nM] | Dmax Code
12 | CCN(CC1CCN(c2ccc(CN3C(=S)N(c4ccc(C#N)c(C(F)(F)F)c4)C(=O)C3(C)C)cn2)CC1)[C@H]1C[C@H](Oc2ccc3c(c2)C(=O)N(C2CCC(=O)NC2=O)C3=O)C1 (stereo partly shown) [Compound 4, 4-(3-((6-(4-((((1r,3r)-3-((2-(2,6-dioxopiperidin-3-yl)-1,3-dioxoisoindolin-5-yl)oxy)cyclobutyl)(ethyl)amino)methyl)piperidin-1-yl)pyridin-3-yl)methyl)-4,4-dimethyl-5-oxo-2-thioxoimidazolidin-1-yl)-2-(trifluoromethyl)benzonitrile] | < 1 | C (C<50)
13 | CC1(C)C(=O)N(c2ccc(C#N)c(C(F)(F)F)c2)C(=S)N1Cc1ccc(OCCN2CCC(CN3CCN(c4ccc5c(c4)C(=O)N(C4CCC(=O)NC4=O)C5=O)CC3)CC2)nc1 (stereo not shown) [Compound 14, 4-(3-((6-(2-(4-((4-(2-(2,6-dioxopiperidin-3-yl)-1,3-dioxoisoindolin-5-yl)piperazin-1-yl)methyl)piperidin-1-yl)ethoxy)pyridin-3-yl)methyl)-4,4-dimethyl-5-oxo-2-thioxoimidazolidin-1-yl)-2-(trifluoromethyl)benzonitrile] | 1 to 10 | B (50≤B<70)
14 | CC1(C)C(=O)N(c2ccc(C#N)c(C(F)(F)F)c2)C(=S)N1Cc1ccc(N2CCC(CN3CCN(c4ccc5c(c4)C(=O)N(C4CCC(=O)NC4=O)C5=O)CC3)CC2)nc1 (stereo not shown) [Compound 3, 4-(3-((6-(4-((4-(2-(2,6-dioxopiperidin-3-yl)-1,3-dioxoisoindolin-5-yl)piperazin-1-yl)methyl)piperidin-1-yl)pyridin-3-yl)methyl)-4,4-dimethyl-5-oxo-2-thioxoimidazolidin-1-yl)-2-(trifluoromethyl)benzonitrile] | < 1 | A (A≥70)
